Test system: Fathead Minnow
Conditions: 750 mg/L concentration, 48 hours
Excerpt: CALIFORNIA CODE REGS (“CCR”) Title 22-Fathead Minnow Hazardous Waste Screen Bioassay.

OO [Hydrogen peroxide (5%), Hydrogen peroxide]
survival: 0%
